The results in this text go back to ChEMBL document CHEMBL3232826.

The nature of data set [1]: Cytotoxicity against MDCK cells assessed as cell viability after 48 hrs by MTT assay. The format is cell-based, Canis lupus familiaris. The following applies: dog, read-out: CTD50. On the technique in general: Tetrazolium assays rely on reduction of a dye to a coloured formazan, in cell work by metabolically active cells.
Another data set in a line: in vitro. The following applies: dog, MDCK cells.

Where a name gives a salt, the structure may show the parent alone.

Description for in vitro: Selectivity index, ratio of CTD50 for MDCK cells to ED50 for Influenza A virus (A/California/07/09(H1N1)) pdm09

Take `CC1(C)[C@@H]2CC[C@@]1(C)/C(=N/CCC/N=C1\C[C@H]3CC[C@]1(C)C3(C)C)C2`: the CC50 at 48 h in data set [1] is 284 µM. In addition, the selectivity ratio in the data set “in vitro” came to 30.
With `CC1(C)[C@@H]2CC[C@@]1(C)/C(=N/CCCCCC/N=C1\C[C@H]3CC[C@]1(C)C3(C)C)C2`, the CC50 at 48 h in data set [1] amounted to 1350 µM. In addition, the selectivity ratio in “in vitro” is 89.
In the same order, the values of `CC1(C)[C@@H]2CC[C@@]1(C)/C(=N/CCCCCCC/N=C1\C[C@H]3CC[C@]1(C)C3(C)C)C2` are 1260 µM and 55.
In the same order, the values of `CC1(C)[C@@H]2CC[C@@]1(C)/C(=N/CCCCCCCC/N=C1\C[C@H]3CC[C@]1(C)C3(C)C)C2` are 390 µM and 16.
In the same order, the values of `CC1(C)[C@@H]2CC[C@@]1(C)/C(=N/CCCCCCCCCCCC/N=C1\C[C@H]3CC[C@]1(C)C3(C)C)C2` are 2220 µM and 49.
Regarding `CC1(C)[C@@H]2CC[C@@]1(C)/C(=N/c1ccc(Cc3ccc(/N=C4\C[C@H]5CC[C@]4(C)C5(C)C)cc3)cc1)C2`, the CC50 at 48 h in data set [1] was over 1070 µM. For the same molecule, in the data set “in vitro”, the selectivity ratio amounted to 3.
In the same order, the values of `CC1(C)[C@@H]2CC[C@@]1(C)/C(=N/c1ccc(Oc3ccc(/N=C4\C[C@H]5CC[C@]4(C)C5(C)C)cc3)cc1)C2` are over 1070 µM and 3.
With `CC1(C)[C@@H]2CC[C@@]1(C)[C@H](NCCCCCCN[C@@H]1C[C@H]3CC[C@]1(C)C3(C)C)C2`, in data set [1], the CC50 at 48 h is 5.4 µM. For the same molecule, in “in vitro”, the selectivity ratio worked out at 7.
`CC1(C)[C@@H]2CC[C@@]1(C)[C@H](NCCCCCCCN[C@@H]1C[C@H]3CC[C@]1(C)C3(C)C)C2`: the CC50 at 48 h in data set [1] was found to be 10.4 µM. In addition, the selectivity ratio in the data set “in vitro” stood at 3.
With `CC1(C)[C@@H]2CC[C@@]1(C)[C@H](NCCCCCCCCCCCCN[C@@H]1C[C@H]3CC[C@]1(C)C3(C)C)C2`, the CC50 at 48 h in data set [1] was 14.4 µM. Further, the selectivity ratio in the data set “in vitro” worked out at 3.
For `CC1(C)[C@@H]2CC[C@@]1(C)[C@H](Nc1ccc(Cc3ccc(N[C@@H]4C[C@H]5CC[C@]4(C)C5(C)C)cc3)cc1)C2`, in that order: over 638 µM and 4.
For `CC1(C)[C@@H]2CC[C@@]1(C)[C@H](Nc1ccc(Oc3ccc(N[C@@H]4C[C@H]5CC[C@]4(C)C5(C)C)cc3)cc1)C2`, in that order: over 636 µM and 3.
In the same order, the values of `CN(CCCCCCN(C)[C@@H]1C[C@H]2CC[C@]1(C)C2(C)C)[C@@H]1C[C@H]2CC[C@]1(C)C2(C)C` are 110 µM and 1.
With `CN(CCCCCCCN(C)[C@@H]1C[C@H]2CC[C@]1(C)C2(C)C)[C@@H]1C[C@H]2CC[C@]1(C)C2(C)C`, the CC50 at 48 h in data set [1] turned out to be 698 µM. For the same molecule, in the data set “in vitro”, the selectivity ratio worked out at 17.
For `CC1(C)[C@@H]2CC[C@@]1(C)/C(=N/c1ccc(Cc3ccc(N)cc3)cc1)C2`, in that order: 30.1 µM and 2.
For `CC1(C)[C@@H]2CC[C@@]1(C)/C(=N/c1ccc(Oc3ccc(N)cc3)cc1)C2`, in that order: 32.9 µM and 8.
For `CC(N)C1CC2CCC1C2` (stereo unspecified), the CC50 at 48 h in data set [1] worked out at 1270 µM.
Take `NC12CC3CC(CC(C3)C1)C2` [AMANTADINE]: the selectivity ratio in “in vitro” was determined as 4.
On the same count and under the same terms, the same measure for `CC1(C)C2CC[C@@]1(C)C(=O)C2` [CAMPHOR]: 2; for `CC(N)C12CC3CC(CC(C3)C1)C2` (stereo unspecified) [RIMANTADINE HYDROCHLORIDE]: 5.
